Assay results taken from US20230067015A1, “SYSTEMS AND METHODS FOR ANTIBACTERIAL SUSCEPTIBILITY TESTING USING DYNAMIC LASER SPECKLE IMAGING” (The Penn State Research Foundation, priority 2020, published 2023).
Converted amounts (≈) assume the structure as drawn. Like-named read-outs stand apart in the source and are kept apart here.

Assays:
E. coli K-12 [1] = assay: Broth microdilution MIC (CLSI), confirmed by time-kill kinetics; type: cell-based, Escherichia coli; conditions: E. coli K-12, gold standard overnight methods
Method: (§1) Escherichia coli (E. coli) strain K-12 was used as a model bacterial strain in all experiments with ampicillin, gentamicin, and ceftriaxone. Multi-drug resistant (MDR) E. coli strain PS00278A (porcine isolate) was tested with ampicillin and gentamicin to contrast with the susceptible model bacterial strain. Staphylococcus aureus (S. aureus) strain PS00975A (human clinical isolate) was used with ampicillin to evaluate the methods' performance on a Gram-positive microorganism. Cultures were stored as a frozen stocks at −80° C. and resuscitated every 14 days to maintain a fresh inoculum. The culture was resuscitated by streaking onto Muller Hinton Agar (MHA) and was then incubated at 37° C. 20+/−2 h. A single colony from the MHA agar was re-streaked on a fresh MHA plate and incubated at 37° C. 20+/−2 h. A single colony from the MHA sub-streak plate was inoculated into 10 mL Muller Hinton Broth (MHB) and incubated at 37° C., shaking at 210 rpm, for 20+/−2 h. The overnight culture was diluted in MHB based on the OD600 to obtain 5×10^5 CFU/mL using a BioPhotometer D30 (Eppendorf, Hauppauge, N.Y.). An OD600 of 1 was considered to be equal to 8×10^8 CFU/mL, based on an E. coli OD600-CFU/ml standard curve.
(§2) The 5×10^5 CFU/mL culture was used for broth microdilution and speckle imaging. […] The CLSI guideline M100 ED30:2020 was used to define clinical resistance based on determined MICs. […] MIC was determined by visually inspecting wells for turbidity resulting from culture growth.
Broth macrodilution was used to determine the time-kill kinetics of all strains, Culture in concentration of 5×10^5 CFU/mL was first grown for 1 hour at 37° C. in a shaking condition (210 rpm) and was then exposed to antibiotic concentrations of 0×MIC (control), 1×MIC, and 2×MIC that were previously determined via broth microdilution. Viable cells were quantified at times 0, 1, 2, 3, 5, 8, 16, and 24 hours by spiral plating (easySpiral, Interscience) 10-fold dilutions onto MHB agar. Inoculated plates were incubated at 37° C. for 16-20 hours and counted to determine the CFU/mL at each time point. […]

MDR E. coli PS00278A [2] = assay: Broth microdilution MIC (CLSI); type: cell-based, Escherichia coli
Method: as §1, with “An OD600 of 1 was considered to be equal to 8×10^8 CFU/mL, based on an E. coli OD600-CFU/ml standard curve.” left out
as §2

E. coli K-12 [3] = assay: Average intensity of raw dynamic laser speckle images; type: cell-based; conditions: Escherichia coli, K12; E. coli K-12, simple intensity measurement (false positive vs overnight MIC); read-out: MIC determined from speckle intensity data
Method: A helium-neon laser (wavelength: 632.8 nm, power: 0.8 mW, HNLS008L, Thorlabs Inc., USA) was used as an illumination source. The laser beam was slightly expanded by using a concave lens (focal length=−25.0 mm) before illuminating a cuvette (Fisherbrand, CAS#14-955-129) containing 3 mL of bacterial suspension. The resultant speckle pattern was captured by a CMOS camera (Zyla, ANDOR), interfaced to a computer. Note that other methods, such as an inverse telescope beam expander, can also be used to increase the incident laser beam size. Our choice of a diverging lens is due to its simplicity and compactness as well as the fact that an explicit physical model is not needed for the machine learning based analysis, which relaxes the requirement of a plane-wave incident beam as commonly used in dynamic light scattering. […]
The OD data and the average intensity values obtained from raw speckle patterns (examples shown in FIG. 2) are shown in FIG. 3A-B and FIG. 3C-D for ampicillin and gentamicin, respectively. […] While the OD values for different antibiotic concentrations are below the detection limit of the OD reading even after 120 min, the average speckle intensity values are distinguishable in 90 min. […]

E. coli K-12 [4] = assay: DyRAST: ANN pixel-level prediction on DLSI data with voting; type: cell-based, Escherichia coli; conditions: 2×MIC
Method: For DLSI-based AST, the culture grown as outlined above was adjusted to 5×10^5 CFU/mL and was further incubated at 37° C., 210 rpm for 1 h to reach the logarithmic growth phase before an antibiotic was added to the culture in concentrations equal to 0×MIC (control), 0.5×MIC, 1×MIC, and 2×MIC. Three mL of each culture were collected at each time point, ti (i=0, 1, . . . , 4) at 0, 30 min, 60 min, 90 min, and 120 min, respectively, and transferred into the cuvette used for DLSI in the imaging system described above. At each ti, a dynamic speckle patterns series (16 bits, 1000×2000 pixels, 50 frames per second) was collected. The exposure time for each frame was 1 msec (millisecond) and the full capture period was 10 sec at each time point, ti. All experiments were conducted in independent triplicates.
The raw images (1000×2000) were first resized (100×200) using the nearest neighbor method to reduce the computational cost. The camera has a pixel size of 6.5 μm, corresponding to a 6.5 mm×13 mm detection area. Fourier Transform (FT) was performed along the time axis of the measured data cube. […]
The experimental replicates are pooled, processed together, and then divided randomly into training, validation, and test groups. […] Binary classification for the “Inhibited” and “Non-Inhibited” bacteria groups was determined with the input from frequency domain for each pixel. […]

MDR E. coli PS00278A [5] = conditions: CLSI guideline M100 ED30:2020, tested on MDR E. coli; cited from earlier work
[6] = Escherichia coli, K12, read-out: MIC

Molecule	MIC (E. coli K-12 [1]; [6])	MIC (MDR E. coli PS00278A [2]; Escherichia coli, read-out: MIC)	MIC (E. coli K-12 [3])	predicted percentage of classification as "Inhibited" (E. coli K-12 [4]; 30 min)	predicted percentage of classification as "Inhibited" (votes) (E. coli K-12 [4]; 60 min)	intermediate breakpoint concentration (clinical resistance diagnosis breakpoint) (MDR E. coli PS00278A [5])	MIC (E. coli K-12 [1])	MIC (MDR E. coli PS00278A [2])
CC1(C)S[C@@H]2[C@H](NC(=O)[C@H](N)c3ccccc3)C(=O)N2[C@H]1C(=O)O [ampicillin, Ampicillin]	4 µg/mL (≈ 11.4 µM)	2000 µg/mL (≈ 5720 µM)	2 µg/mL (≈ 5.72 µM)	~50%	more than 80%	16 µg/mL		
CO/N=C(\C(=O)N[C@@H]1C(=O)N2C(C(=O)O)=C(CSc3nc(=O)c(=O)[nH]n3C)CS[C@H]12)c1csc(N)n1 [ceftriaxone]	0.0625 µg/mL (≈ 0.113 µM)							
gentamicin						8 µg/mL	2 µg/mL	128 µg/mL
